The values that follow come from patent publication US4698350A, “1-ethyl-6-fluoro-1,4-dihydro- 7-(2,6-dimethyl-4-pyridinyl)-4-oxo-3-quinolinecarboxylic acid and antibacterial use thereof” (Sterling Drug Inc., priority 1984, dated 1987).

What all share (format): cell-based
The test system of assay [1] is E. coli (8739). Put plainly: In vitro antibacterial MIC/MBC test. The settings on record: Escherichia coli, ATCC8739; E. coli ATCC No. 8739. The method, boiled down: (§1)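 In this microdilution assay, strains are exposed to two-fold compound dilutions in MHB (streptococci in BHI+1% NHS) at roughly 1×10^4 cells per well for 18-20 hours at 37° C. Visible growth defines the MIC. Subculture onto MHA or BHI agar+10% NHS defines the MBC.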

Assay [2] relates to E. coli 198. Put plainly: In vitro antibacterial MIC/MBC test. The settings on record: Escherichia coli. The method, boiled down: as §1
Assay [3] deals with P. aeruginosa (15442). Put plainly: In vitro antibacterial MIC/MBC test. The settings on record: Pseudomonas aeruginosa, ATCC15442; P. aeruginosa ATCC No. 15442. The gist of the method: as §1
The subject of assay [4] is P. aeruginosa (9027). Put plainly: In vitro antibacterial MIC/MBC test. The settings on record: Pseudomonas aeruginosa, ATCC9027; P. aeruginosa ATCC No. 9027. The gist of the method: as §1
Assay [5] relates to P. aeruginosa MGH-2. In words: In vitro antibacterial MIC/MBC test. As to conditions: Pseudomonas aeruginosa, MGH2. The method, boiled down: as §1
Assay [6] concerns A. actinomycetemcomitans. In words: Agar dilution MIC, anaerobic microorganisms. As to conditions: Aggregatibacter actinomycetemcomitans, 48 h; A. actinomycetemcomitans; read-out: MIC. How it is done:
(§2) 1. Maintenance. Prior to use, all strains were maintained in the lyophilized state. During the study, cultures were examined on blood agar basal medium supplemented with 5.0% (v/v) defibrinated rabbit blood. Culture transfer was accomplished weekly with all cultures being incubated in an anaerobic atmosphere (GasPak jar; BBL).
(§3) 2. Agar Medium. The basal test medium consisted of trypticase soy agar (40 g), yeast extract (1 g), glucose (2 g) and 960 ml of distilled water pH 7.2. [Mashimo et al., J. Clin. Micro. 17, 187-191 (1983)]. Subsequent to sterilization and cooling to 50° C., the medium was supplemented with 4% (v/v) defibrinated rabbit blood and 0.5 μg/ml menadione (Vitamin K3) The agent under evaluation was also added at this time to the concentration desired. Subsequent to pouring of the plates, they were permitted to dry at 4° C. for 24 hr.
(§4) 3. Determination of Agent MIC. The minimal inhibitory concentration (MIC) of the various test agents was determined using an agar dilution technique. Agents and appropriate reference compounds were added to achieve a series of concentrations ranging between 32 μg/ml and 0.007 μg/ml. The inocula were prepared from 96-hr. cultures grown on the maintenance medium. Subsequent to a purity evaluation, colonies were removed and suspended in trypticase soy broth supplemented with 5 μg/ml menadione and 2% lysed rabbit blood filtrate to achieve an OD650 of 0.1 (this corresponded to approximately 10^8 cells/ml). Cultures were inoculated aerobically on the modified trypticase soy blood agar plates by use of a Steer's replicator (which delivers about 10^5 cells per spot). The plates were allowed to dry for a time not exceeding 30 min. and then incubated at 37° C. under an atmosphere of […], 10% H2 and 5% CO2 maintained in an anaerobic chamber (Coy Manufacturing Co.) for 48 hr. The MIC was defined as the lowest concentration completely inhibiting growth.
(§5) Tetracycline stock solutions (1 mg/ml) were made subsequent to dissolution in water. Stock solutions (1 mg/ml) of the remaining test compounds were made subsequent to dissolution in 1/10 N NaOH.
A general note: In agar dilution, organisms are placed on agar that contains the substance at set levels.

The test system of assay [7] is A. viscosus. Put plainly: Agar dilution MIC, anaerobic microorganisms. The settings on record: Actinomyces viscosus, 48 h; A. viscosus; read-out: MIC. How it is done:
as §2, §3, §4, §5

The subject of assay [8] is B. fragilis. In words: Agar dilution MIC, anaerobic microorganisms. The settings on record: Bacteroides fragilis, 48 h; B. fragilis; read-out: MIC. As for the experimental part:
as §2, §3, §4, §5

The test system of assay [9] is B. gingivalis. In words: Agar dilution MIC, anaerobic microorganisms. As to conditions: Porphyromonas gingivalis, 48 h; B. gingivalis; read-out: MIC. As for the experimental part: as §2, §3, §4, §5
Assay [10] deals with B. intermedius. Put plainly: Agar dilution MIC, anaerobic microorganisms. As to conditions: Prevotella intermedia, 48 h; B. intermedius; read-out: MIC. How it is done: as §2, §3, §4, §5
For assay [11], the system named is B. melaninogenicus. In words: Agar dilution MIC, anaerobic microorganisms. As to conditions: 48 h; B. melaninogenicus; read-out: MIC. How it is done:
as §2, §3, §4, §5

The test system of assay [12] is B. oralis. In words: Agar dilution MIC, anaerobic microorganisms. The settings on record: Hoylesella oralis, 48 h; B. oralis; read-out: MIC. How it is done:
as §2, §3, §4, §5

In assay [13] the test system is Campylobacter sputorum. In words: Agar dilution MIC, anaerobic microorganisms. As to conditions: 48 h. How it is done: as §2, §3, §4, §5
The subject of assay [14] is Capnocytophaga suptigena. In words: Agar dilution MIC, anaerobic microorganisms. The settings on record: 48 h; Capnocytophaga suptigena; read-out: MIC. As for the experimental part:
as §2, §3, §4, §5

Assay [15] has as its system Eikenella corrodens. In words: Agar dilution MIC, anaerobic microorganisms. The settings on record: 48 h, read-out: MIC. How it is done:
as §2, §3, §4, §5

The subject of assay [16] is F. nucleatum. In words: Agar dilution MIC, anaerobic microorganisms. As to conditions: Fusobacterium nucleatum, 48 h; F. nucleatum; read-out: MIC. How it is done:
as §2, §3, §4, §5

The subject of assay [17] is F. polymorphum. Put plainly: Agar dilution MIC, anaerobic microorganisms. The settings on record: 48 h; F. polymorphum; read-out: MIC. As for the experimental part: as §2, §3, §4, §5
The subject of assay [18] is Wolinella recta. Put plainly: Agar dilution MIC, anaerobic microorganisms. The settings on record: Campylobacter rectus, 48 h. As for the experimental part: as §2, §3, §4, §5

Each structure is given as a SMILES string. In brackets after ≈: the same amount, converted by molar mass. A value given as a limit tells only on which side of the number the result lay.

Regarding `CCn1cc(C(=O)O)c(=O)c2ccc(-c3cc(C)nc(C)c3)cc21` [Win 35,439, 1-ethyl-1,4-dihydro-7-(2,6-dimethyl-4-pyridinyl)-4-oxo-3-quinolinecarboxylic acid], the MBC (usually the smallest concentration meeting the test's criterion for killing) in [1] is 0.5 µg/mL (≈ 1.55 µM); in [2] it was 2 µg/mL (≈ 6.2 µM); in assay [3] it was over 16 µg/mL; in assay [4], over 16 µg/mL; in assay [5] it was 16 µg/mL (≈ 49.6 µM). Moreover, the MIC in assay [1] is 0.5 µg/mL (≈ 1.55 µM); in assay [2], 2 µg/mL (≈ 6.2 µM); in assay [3], over 16 µg/mL; in assay [4] it was 8 µg/mL (≈ 24.8 µM); in [5] it was 8 µg/mL (≈ 24.8 µM); in assay [6], 0.25 µg/mL (≈ 0.776 µM). The MIC in assay [7] is 8 µg/mL (≈ 24.8 µM); in [8] it was over 10 µg/mL; in assay [9], over 10 µg/mL; in assay [10], 0.25 µg/mL (≈ 0.776 µM); in [11], 8 µg/mL (≈ 24.8 µM); in assay [12], over 10 µg/mL. For the same compound, the MIC was over 10 µg/mL in assay [13]; 0.5 µg/mL (≈ 1.55 µM) in assay [14]; 2 µg/mL (≈ 6.2 µM) in [15]; 4 µg/mL (≈ 12.4 µM) in [16]; 4 µg/mL (≈ 12.4 µM) in assay [17]; 0.5 µg/mL (≈ 1.55 µM) in assay [18].
For `CCn1cc(C(=O)O)c(=O)c2cc(F)c(-c3cc(C)nc(C)c3)cc21` [Win 52,522, 1-ethyl-6-fluoro-1,4-dihydro-7-(2,6-dimethyl-4-pyridinyl)-4-oxo-3-quinolinecarboxylic acid], the MBC was determined as 0.25 µg/mL (≈ 0.735 µM) in assay [1]; 0.5 µg/mL (≈ 1.47 µM) in [2]; 16 µg/mL (≈ 47 µM) in [3]; 16 µg/mL (≈ 47 µM) in [4]; 16 µg/mL (≈ 47 µM) in assay [5]. In addition, the MIC in assay [1] stood at 0.25 µg/mL (≈ 0.735 µM); in assay [2] it was 0.5 µg/mL (≈ 1.47 µM); in [3], 16 µg/mL (≈ 47 µM); in [4], 4 µg/mL (≈ 11.8 µM); in [5] it was 16 µg/mL (≈ 47 µM); in [6], 0.12 µg/mL (≈ 0.353 µM). In addition, the MIC in assay [7] was found to be 1 µg/mL (≈ 2.94 µM); in assay [8], 4 µg/mL (≈ 11.8 µM); in [9], 2 µg/mL (≈ 5.88 µM); in assay [10] it was 0.06 µg/mL (≈ 0.176 µM); in [11], 1 µg/mL (≈ 2.94 µM); in [12], 4 µg/mL (≈ 11.8 µM). The MIC was determined as 8 µg/mL (≈ 23.5 µM) in assay [13]; 0.06 µg/mL (≈ 0.176 µM) in assay [14]; 0.5 µg/mL (≈ 1.47 µM) in [15]; 0.5 µg/mL (≈ 1.47 µM) in assay [16]; 0.5 µg/mL (≈ 1.47 µM) in assay [17]; 0.12 µg/mL (≈ 0.353 µM) in [18].
